# Experiments:
# [1] = radiochemical stability of the radiotracer after preparation; type: physicochemical
# [2] = [18F](1) stability study on ex vivo extracts; type: in vivo, mice
# Procedure: Six primary melanoma bearing mice were intravenously injected with 18 MBq of [^18F](1) and sacrificed 30 min, 1 h and 2 h after tracer injection. To determine the metabolic stability of [^18F](1), blood, tumour, eyes, liver and urine samples were collected. Blood was immediately centrifuged for 5 min at 3,000 rpm and plasma directly investigated by analytical HPLC. Other organs were pooled and homogenized using GentleMACS™ dissociator (Miltenyi Biotec, Bergisch Gladbach, Germany), suspended in 5 mL of methanol/NH4OH 99.8:0.2 and centrifuged for 5 min at 3,000 rpm. The extraction efficiency was determined by measuring the radioactivity of supernatants and precipitates. Supernatants were passed through a 0.22 μm Millipore filter and then concentrated to a volume between 200 and 500 μL before injection (duplicate) onto the analytical HPLC (Waters Symmetry® C18; Gradient elution: 60% to 90% MeOH (0.4% NH4OH) in water (0.4% NH4OH) (10 min), then 60% for 7 min).
# [3] = test system: B16 murine melanoma tumours; assay: Ex vivo biodistribution of [18F]-labelled compounds; type: in vivo, C57BL/6J mice
# Procedure: (§1) All our studies were performed in accordance with French and European Economic Community (86-609, EEC) guidelines for care of laboratory animals. Protocols were performed under the authorization of the French Direction des Services Veterinaires (authorization no. CE 86-12). Male C57BL/6J mice were originating from Charles River laboratories and maintained at 21° C. with a 12 h/12 h light/dark cycle, fed with a breeding diet (diet A04 from Safe, Villemoisson, France) and received water ad libitum. For transplantation B16BL6 cell suspension were grown in a monolayer culture to confluence, after which cells were trypsinized, washed with phosphate buffer saline (PBS) and they were resuspended in PBS. Mice were anesthetized by isoflurane (4% for induction and 2±0.5% for maintaining in oxygen flux) inhalation. The primary tumour model was induced by subcutaneous injection of 3×10^5 melanoma B16B16 cells in 0.1 mL on the right shoulder of mice.
# Ex vivo biodistribution studies: An ex vivo biodistribution study was performed for better comparison of [^18F](1) and [^18F](5). Experimentations were undertaken at day-10 or day-14 after cell inoculation (n=3-6/group). […] Tumours and major organs and tissues were promptly excised, harvested, weighted and their radioactivity counted using a calibrated γ-counter with a 400 to 600 keV energy window. After radioactive decay correction, results were expressed as percentage of injected dose per gram of tissue (% ID/g).
# [4] = test system: B16BL6 tumour; assay: PET imaging in B16BL6 tumour bearing mice; type: in vivo, C57BL/6J mice; conditions: 1 h p.i., day-15
# Procedure: as §1
# Whole-body PET scans were acquired 1 h after bolus injection of […] of the appropriate [^18F]-compound in a volume of 0.15 ml via the tail vein. Mice were anesthetized by intraperitoneal (i.p.) administration (200 μL/mouse) of a ketamine-xylazine mixture in saline: ketamine (100 mg/kg, Imalgene™, Rhône Mérieux, Lyon, France) and xylazine (10 mg/kg, Rompun™, Bayer, France) before radiotracer injection and imaged by using a small-animal PET device, eXplore Vista microPET instrument (GE Healthcare). PET images were acquired by using static mode during 20 min. The acquired data were reconstructed using the 2-Dimensional ordered-subsets expectation maximization (OSEM) algorithm and corrected from decay, scatter and randoms. No corrections were applied for partial volume or attenuation.
# Regional tracer uptake was quantified by standard region-of-interest (ROI) analysis with eXplore Vista software package. A manual 2D-ROI was drawn around the tumour in each slice where tumour was visible, and on several subsequent coronal planes containing muscle tissue at the forelimb. Results are expressed by percentage of injected dose per gram of tissue (% ID/g).
# PET imaging was performed 1 h post injection of tracers in B16BL6 tumour bearing mice at day-15 after tumours cell inoculation.
structure (smiles),measurement,setting,value
CCN(CCNC(=O)c1cnc2cc(I)ccc2n1)CCOCCOCCOCC[18F] [[^18F](1)],radiochemically stable at room temperature after preparation,[1],at least 24 h
same,% unchanged [18F](1),"[2]; Black, Blood, 30 min",15.2%
same,% unchanged [18F](1),"[2]; Black, Eyes, 1 h",100%
same,% unchanged [18F](1),"[2]; Black, Eyes, 2 h",>99%
same,% unchanged [18F](1),"[2]; Black, Liver, 1 h",<10%
same,% unchanged [18F](1),"[2]; Black, Liver, 2 h",<20%
same,% unchanged [18F](1),"[2]; Black, Tumour, 1 h",>99%
same,% unchanged [18F](1),"[2]; Black, Tumour, 2 h",100%
same,% unchanged [18F](1),"[2]; Black, Urine, 1 h",0.1%
same,% unchanged [18F](1),"[2]; Black, Urine, 2 h",0.0%
same,% unchanged [18F](1),"[2]; Nude, Blood, 30 min",3.0%
same,% unchanged [18F](1),"[2]; Nude, Liver, 2 h",<10%
same,% unchanged [18F](1),"[2]; Nude, Tumour, 1 h",>99%
same,% unchanged [18F](1),"[2]; Nude, Tumour, 2 h",>99%
same,% unchanged [18F](1),"[2]; Nude, Urine, 1 h",2.7%
same,% unchanged [18F](1),"[2]; Nude, Urine, 2 h",1.4%
same,% ID/g (tumour),[3]; 1 h p.i.,14.05 ± 1.42 % ID/g
same,% ID/g Blood,[3]; 1 h p.i.,1.42 ± 0.32 % ID/g
same,% ID/g Bones,[3]; 1 h p.i.,1.40±0.10 % ID/g
same,% ID/g Brain,[3]; 1 h p.i.,1.82 ± 0.08 % ID/g
same,% ID/g Ceacum,[3]; 1 h p.i.,7.27 ± 0.62 % ID/g
same,% ID/g Colon + faeces,[3]; 1 h p.i.,7.17 ± 2.93 % ID/g
same,% ID/g Eyes,[3]; 1 h p.i.,18.36 ± 4.74 % ID/g
same,% ID/g Heart,[3]; 1 h p.i.,2.72 ± 0.18 % ID/g
same,% ID/g Kidney,[3]; 1 h p.i.,3.46 ± 0.53 % ID/g
same,% ID/g Liver,[3]; 1 h p.i.,2.56 ± 0.22 % ID/g
same,% ID/g Lung,[3]; 1 h p.i.,1.86 ± 0.15 % ID/g
same,% ID/g Muscle,[3]; 1 h p.i.,1.17 ± 0.12 % ID/g
same,% ID/g Pancreas,[3]; 1 h p.i.,2.09 ± 0.42 % ID/g
same,% ID/g Skin,[3]; 1 h p.i.,1.44 ± 0.19 % ID/g
same,% ID/g Small intestine,[3]; 1 h p.i.,7.58 ± 1.80 % ID/g
same,% ID/g Spleen,[3]; 1 h p.i.,3.72 ± 1.49 % ID/g
same,% ID/g Stomach,[3]; 1 h p.i.,4.41 ± 1.36 % ID/g
same,TBR Tumour-to-Blood Ratio,[3]; 1 h p.i.,10.24 ± 2.83
same,TBoR Tumour-to-Bone Ratio,[3]; 1 h p.i.,10.11 ± 1.87
same,TMR Tumour-to-Muscle Ratio,[3]; 1 h p.i.,12.12 ± 2.29
same,% ID/g (tumour),[3]; 2 h p.i.,13.07 ± 1.22 % ID/g
same,% ID/g Blood,[3]; 2 h p.i.,1.12 ± 0.24 % ID/g
same,% ID/g Bones,[3]; 2 h p.i.,1.96 ± 0.51 % ID/g
same,% ID/g Brain,[3]; 2 h p.i.,1.39 ± 0.25 % ID/g
same,% ID/g Ceacum,[3]; 2 h p.i.,8.94 ± 1.78 % ID/g
same,% ID/g Colon + faeces,[3]; 2 h p.i.,6.05 ± 1.72 % ID/g
same,% ID/g Eyes,[3]; 2 h p.i.,18.17 ± 3.15 % ID/g
same,% ID/g Heart,[3]; 2 h p.i.,2.14 ± 0.33 % ID/g
same,% ID/g Kidney,[3]; 2 h p.i.,2.18 ± 0.43 % ID/g
same,% ID/g Liver,[3]; 2 h p.i.,1.88 ± 0.34 % ID/g
same,% ID/g Lung,[3]; 2 h p.i.,1.65 ± 0.11 % ID/g
same,% ID/g Muscle,[3]; 2 h p.i.,0.92 ± 0.15 % ID/g
same,% ID/g Pancreas,[3]; 2 h p.i.,1.33 ± 0.28 % ID/g
same,% ID/g Skin,[3]; 2 h p.i.,1.51 ± 0.53 % ID/g
same,% ID/g Small intestine,[3]; 2 h p.i.,4.28 ± 1.18 % ID/g
same,% ID/g Spleen,[3]; 2 h p.i.,2.88 ± 2.11 % ID/g
same,% ID/g Stomach,[3]; 2 h p.i.,2.48 ± 0.88 % ID/g
same,TBR Tumour-to-Blood Ratio,[3]; 2 h p.i.,12.19 ± 3.32
same,TBoR Tumour-to-Bone Ratio,[3]; 2 h p.i.,7.13 ± 2.21
same,TMR Tumour-to-Muscle Ratio,[3]; 2 h p.i.,14.46 ± 2.62
same,% ID/g (tumour),[3]; 3 h p.i.,11.55±1.24 % ID/g
same,% ID/g Blood,[3]; 3 h p.i.,0.80 ± 0.07 % ID/g
same,% ID/g Bones,[3]; 3 h p.i.,3.27 ± 0.70 % ID/g
same,% ID/g Brain,[3]; 3 h p.i.,1.37 ± 0.35 % ID/g
same,% ID/g Ceacum,[3]; 3 h p.i.,10.79 ± 1.54 % ID/g
same,% ID/g Colon + faeces,[3]; 3 h p.i.,8.09 ± 5.04 % ID/g
same,% ID/g Eyes,[3]; 3 h p.i.,17.96 ± 2.73 % ID/g
same,% ID/g Heart,[3]; 3 h p.i.,2.32 ± 0.50 % ID/g
same,% ID/g Kidney,[3]; 3 h p.i.,2.19 ± 0.36 % ID/g
same,% ID/g Liver,[3]; 3 h p.i.,1.99 ± 0.45 % ID/g
same,% ID/g Lung,[3]; 3 h p.i.,1.60 ± 0.09 % ID/g
same,% ID/g Muscle,[3]; 3 h p.i.,0.81 ± 0.10 % ID/g
same,% ID/g Pancreas,[3]; 3 h p.i.,1.33 ± 0.35 % ID/g
same,% ID/g Skin,[3]; 3 h p.i.,1.05 ± 0.12 % ID/g
same,% ID/g Small intestine,[3]; 3 h p.i.,3.91 ± 1.05 % ID/g
same,% ID/g Spleen,[3]; 3 h p.i.,1.87 ± 0.38 % ID/g
same,% ID/g Stomach,[3]; 3 h p.i.,2.81 ± 2.23 % ID/g
same,TBR Tumour-to-Blood Ratio,[3]; 3 h p.i.,14.43±1.75
same,TBoR Tumour-to-Bone Ratio,[3]; 3 h p.i.,3.70 ± 1.17
same,TMR Tumour-to-Muscle Ratio,[3]; 3 h p.i.,14.46±3.06
same,in vivo defluorination,[3]; 3 h p.i.,Partial in vivo defluorinations
same,eyes uptake,[4],10.50±2.95 % ID/g
same,intestine uptake,[4],4.07±1.39 % ID/g
same,muscles activity,[4],1.37±0.37 % ID/g
same,pigmented spleen uptake,[4],7.38±0.73 % ID/g
same,tumour uptake,[4],14.33±2.11 % ID/g
same,tumour/muscle ratio,[4],11.04±2.87
